Data from patent US9006295B2, “Process for bacterial stabilizing of aqueous ground natural calcium carbonate and/or precipitated calcium carbonate and/or dolomite and/or surface-reacted calcium carbonate-comprising mineral preparations” (Omya International AG, priority 2009, dated 2015).
Entries after “also recorded” stand apart in the source; their conditions may differ.

Assays:
[1] = system: mixture of Pseudomonas species containing predominantly Pseudomonas putida and Pseudomonas stutzeri that are resistant to BM2; assay: Biocidal activity in slurry, BM2-resistant bacteria; type: cell-based; details: GNCCS1 slurry
Procedure: (§1) All quoted bacterial counts (Total Viable Count (TVC) values are in cfu/ml) in the Tables herebelow are determined after 5 days following plate-out and in accordance with counting method described in “Bestimmung von aeroben mesophilen Keimen”, Schweizerisches Lebensmittelbuch, chapter 56, section 7.01, edition of 1985, revised version of 1988.
BM2 and AMP were introduced into 50 g samples of each of the slurries indicated in Table 5 in the listed amounts (quoted in ppm based on the weight of the aqueous phase in the slurry). A reference was prepared according to the same protocol but in absence of AMP. References were prepared according to the same protocol but in absence of AMP and in absence of AMP and BM2.
(§2) The slurry samples were then inoculated with 1 ml of a mixture of Pseudomonas species containing predominantly Pseudomonas putida and Pseudomonas stutzeri that are resistant to BM2. Each of the samples was incubated at 30° C. for 72 hours. Thereafter, a 1:10 dilution in phosphate buffered saline (PBS) was plated on plate count agar (PCA). These plates were incubated at 30° C. and analysed after 5 days.
Biocide mixture 2 (BM2) is an aqueous solution containing 85% by weight of EGHF and 1.5% by weight of a combination of CIT and MIT (in a weight ratio CIT:MIT of 3:1), relative to the total solution weight. […]

[2] = system: mixture of Pseudomonas species containing predominantly Pseudomonas putida and Pseudomonas stutzeri that are resistant to BM1; assay: Biocidal activity in slurry, BM1-resistant bacteria; type: cell-based; details: GNCCS1 slurry
Procedure: as §1
(§3) BM1 and AMP were introduced into 50 g samples of each of the slurries indicated in Table 3 in the listed amounts (quoted in ppm based on the weight of the aqueous phase in the slurry). References were prepared according to the same protocol but in absence of AMP and in absence of AMP and BM1.
as §2, with “BM1.” for “BM2.”
Biocide mixture 1 (BM1) is an aqueous solution containing 24% by weight of GDA and 1.5% by weight of a combination of CIT and MIT (in a weight ratio CIT:MIT of 3:1), relative to the total solution weight. […]

[3] = system: mixture of Pseudomonas species containing predominantly Pseudomonas putida and Pseudomonas stutzeri that are resistant to OPP; assay: Biocidal activity in slurry, OPP-resistant bacteria; type: cell-based; details: GNCCS1 slurry
Procedure: as §1
OPP, in the form of an aqueous solution having a concentration of 45%, and MEA were introduced into 50 g samples of each of the slurries indicated in Table 11 in the listed amounts (quoted in ppm active content based on the weight of the aqueous phase in the slurry). A reference was prepared according to the same protocol but in absence of MEA. References were prepared according to the same protocol but in absence of MEA and in absence of MEA and OPP.
as §2, with “OPP.” for “BM2.”
Test 59 below represents the same slurry as Test 58, but following a second inoculation of 1 ml of a mixture of Pseudomonas species. […]

[4] = system: mixture of Pseudomonas species containing predominantly Pseudomonas putida and Pseudomonas stutzeri; assay: Biocidal activity in slurry (Total Viable Count after inoculation); type: cell-based; details: GNCCS1 slurry; Tables 1, 2 and 4
Procedure: as §1
as §3, with “Biocide mixture 1 (BM1) is an aqueous solution containing 24% by weight of GDA and 1.5% by weight of a combination of CIT and MIT (in a weight ratio CIT:MIT of 3:1), relative to the total solution weight. BM1 and” for “BM1 and”, “in Table 1 in the” for “in Table 3 in the”
as §2, with “stutzeri.” for “stutzeri that are resistant to BM2.”, “days. […]” for “days.”

Pseudomonas aeruginosa = details: in combination with 500 ppm of triazine biocide; TSB-based plates; cited from earlier work

| SMILES | biocide enhancement (in words) [1] | biocide enhancement (in words) [2] | biocide enhancement (in words) [3] | biocide enhancement (in words) [4] | amount of AMP needed to significantly influence the growth rate of the bacteria (Pseudomonas aeruginosa) |
| --- | --- | --- | --- | --- | --- |
| NCCO [MEA, 2-aminoethanol] | enhances the biocide function of BM2 | enhances the biocide function of BM1 | enhances the biocide function of OPP | – | – |
| CC(C)(N)CO [AMP, 2-amino-2-methyl-1-propanol] | enhances the biocide function of BM2 | – | – | enhances the biocide function of BM1; also recorded: enhances the biocide function of BM2 | more than 4 000 ppm |
